Data as given in patent publication US20120301551A1, “COMPOUNDS AND COMPOSITIONS FOR TREATING NEURONAL DEATH OR NEUROLOGICAL DYSFUNCTION” (Neurotech Pharmaceuticals Co., Ltd., priority 2005, published 2012).
“And” between values parts separate entries of the source, which are not always exact repeats. Identical values can stand only once. “Also recorded” adds a separate entry of the source. Like-named read-outs stand apart in the source and are kept apart here. Residues, ends and D or L forms follow the SMILES beside them. *: point of attachment. Cbz = O=C(OCc1ccccc1)*; CH2F = FC*

Assays:
Fas-FADD interaction = Fas-FADD interaction in serum-deprived neuron-rich cultures (immunoprecipitation, Western blot); assay type: cell-based, mouse; details: deprived of serum for 8 hr
Experimental: (§1) (B) Neuron-rich cortical cell cultures (DIV 7) were deprived of serum, alone or with addition of 100 μM zVADfmk, 1 μM 2-hydroxy TTBA, or 5 mM Li^+. Neuronal death was analyzed 24 hr later by counting viable neurons excluding trypan (mean±SEM, n=4). *, Significant difference from the relevant control (serum deprivation alone), p<0.05 using ANOVA and Student-Neuman-Keuls test. (C) Western blot analysis of FADD antibody following immunoprecipitation with Fas antibody in the same samples above.
(§2) Additional experiments were performed to examine if targeting both neuronal cell necrosis and apoptosis would result in synergic neuroprotection in […] transgenic mice. […] Neuronal cell apoptosis was induced by serum deprivation in neuron-rich cortical cell cultures as reported, which was prevented by addition of 5 mM Li^+ as well as zVADfmk, a broad spectrum inhibitor of caspases (FIG. 5B). […] Additional experiments were performed to examine if Li^+ would prevent Fas signaling pathway. […] This implies that 2-Hydroxy-TTBA and Li^+ blocks oxidative neuronal cell necrosis and apoptosis, respectively.

[1] = system: mixed cortical cell cultures containing neurons and glia; assay: Fe2+-induced free radical neurotoxicity in mixed cortical cell cultures (LDH release); assay type: cell-based, mouse; details: for Fe^2+-induced free radical neurotoxicity, effect in words: 50 μM Fe^2+, 24 hr, 2-Hydroxy-TTBA or 2-Hydroxy-TPEA at doses as low as 0.3 μM, vitamin E at higher doses, Li^+ 10 mM (legend 5 mM); for IC50: 50 μM FeCl2, neuronal death 24 hr later (LDH), read-out: IC50 (50% protection against Fe^2+-induced free radical neurotoxicity)
Experimental: (§3) Mouse cortical cell cultures (DIV 11-15) were exposed to 50 μM Fe^2+ or 10 mM BSO, alone or with inclusion of 5 mM Li^+. Neuronal death was analyzed 24 hr later by measuring levels of LDH released into the bathing medium, mean±SEM (n=9-12 culture wells per condition).
Mouse cortical cell cultures (DIV 11-15) were exposed to 30 μM Fe^2+ or 10 mM BSO, alone or in the presence of 1 μM 2-hydroxy TTBA, 10-100 μM vitamin E, or 5 mM Li^+.
(§4) For mixed neuron-glia culture, mouse cerebral cortices were removed from brains of the 11-15 day-old-fetal mice (E11-15), gently triturated and plated on 24 well plates (2×10^5 cells/plate) precoated with 100 μg/ml poly-D-lysine and 4 pg/ml laminin. Cultures were maintained at 37° C. in a humidified 5% CO2 atmosphere.
After 7-8 days in vitro (DIV 7-8), 10 μM cytosine arabinofuranoside (Ara-C) was included to halt overgrowth of glia. The drug treatment was carried on DIV 11-15 cortical cell culture.
Oxidative stress was induced by exposing mixed cortical cell cultures containing neurons and glia (DIV 11-15) to 50 μM FeCl2, a hydroxyl radical-producing transition metal via a Fenton reaction, or 10 mM DL-buthionine-[S,R]-sulfoximine (BSO), a glutathione depleting agent.

[2] = system: mixed cortical cell cultures containing neurons and glia; assay: BSO-induced free radical neurotoxicity in mixed cortical cell cultures (LDH release); assay type: cell-based, mouse
Experimental: Mouse cortical cell cultures (DIV 11-15) were exposed to 10 mM BSO, alone or with indicated doses of 2-Hydroxy-TTBA or 2-Hydroxy-TPEA. Neuronal death was analyzed 24 hr later by measuring levels of LDH released into the bathing medium, mean±SEM (n=9-12 culture wells per condition). *, Significant difference from BSO alone, p<0.05 using ANOVA and Student-Newman-Keuls test.
as §3
Mouse cortical cell cultures (DIV 11-15) were exposed to 30 μM Fe^2+ or 10 mM BSO, alone or in the presence of 1 μM 2-hydroxy TTBA, 10-100 μM vitamin E, or 5 mM Li^+. Neuronal death was analyzed 24 h later by measuring LDH efflux in the bathing media (mean±SEM, n=12). *, Significant difference from the relevant control (Fe^2+ or BSO alone), p<0.05 using ANOVA and Student-Newman-Keuls test.
as §4, with “atmosphere. Plating media consist of Eagles minimal essential media (MEM, Earles salts, supplied glutamine-free) supplemented with 5% horse serum, 5% fetal bovine serum, 26.5 mM bicarbonate, 2 mM glutamine, and 21 mM glucose.” for “atmosphere.”
After 7-8 days in vitro (DIV 7-8), 10 μM cytosine arabinofuranoside (Ara-C) was included to halt overgrowth of glia. The drug treatment was carried on DIV 11-15 cortical cell culture. Overall neuronal cell injury was assessed by measuring amount of lactate dehydrogenase (LDH) released into the bathing medium 24 hr after neurotoxic insults as previously described (Koh and Choi, J Neurosci Methods 20:83-90, 1987).
Oxidative stress was induced by exposing mixed cortical cell cultures containing neurons and glia (DIV 11-15) to 50 μM FeCl2, a hydroxyl radical-producing transition metal via a Fenton reaction, or 10 mM DL-buthionine-[S,R]-sulfoximine (BSO), a glutathione depleting agent. Widespread neuronal death was observed 24 hours later. […] Administration of vitamin E prevented Fe^2+-induced free radical neurotoxicity at higher doses. This implies that 2-Hydroxy-TTBA or 2-Hydroxy-TPEA is a potent neuroprotectant against oxidative stress.

[3] = system: Fas, FADD, cleaved caspase-8 and caspase-3; assay: Fas pathway in lumbar spinal cord of G93A transgenic mice (Western blot); details: at 12 weeks of age; 2-hydroxy-TTBA 30 mg/kg/d, Li^+ 200 mg/kg/d in the diet
Experimental: G93A transgenic mice received oral administration of 2-hydroxy-TTBA (30 mg/kg/d) in the diet from 8 weeks of age.

[4] = system: neuron-rich cortical cell cultures; assay: serum deprivation-induced neuronal cell apoptosis; assay type: cell-based, mouse; details: 24 hr; 5 mM Li^+, 100 μM zVADfmk, 1 μM 2-hydroxy TTBA
Experimental: as §1, §2

G93A transgenic mice = assay type: in vivo, mouse
Experimental: Animals were daily fed with 2-hydroxy TTBA (30 mg/kg/d), 0.2% lithium carbonate (200 mg/kg/d, Li), or a combination of both (2-hydroxy TTBA+Li) from 8 weeks of age in diet.
Animals were daily fed with 2-hydroxy TTBA (30 mg/kg/d), 0.2% lithium carbonate (Li), or a combination of both (2-hydroxy TTBA+Li) from 8 weeks of age in diet.
C & D: (C) Bright-field photomicrographs of cresyl violet-stained ventral horn sections from the wild type (a), or G93AA transgenic mice treated with vehicle (b), or with a combination of 2-hydroxy TTBA+Li (c) at 16 weeks of age.

[5] = system: cortical cell cultures containing neurons and glia; assay: cyclosporine A or calyculin A-induced neuronal cell apoptosis in cortical cell cultures; assay type: cell-based, mouse; details: 24 hr; for cyclosporine A-induced neuronal cell apoptosis, effect in words: 20 μM cyclosporine A, 100 μM Vitamin E, 1 μM 2-hydroxy-TTBA, 1 μM 2-hydroxy-TPEA
Experimental: Mouse cortical cell cultures (DIV 10-12) were exposed to 20 μM cyclosporine A or 10 nM calculin A, alone or with inclusion of 0.3-30 mM Li. Neuronal death was analyzed 24-28 hr later by measuring levels of LDH released into the bathing medium, mean±SEM (n=9-12 culture wells per condition).
Mouse cortical cell cultures (DIV 10-12) were exposed to 20 μM cyclosporine A, alone or with 100 μM Vitamin E, 1 μM 2-hydroxy-TTBA, or 1 μM 2-hydroxy-TPEA. Neuronal death was analyzed 24 hr later by measuring levels of LDH released into the bathing medium, mean±SEM (n=9-12 culture wells per condition).
Cortical cell cultures containing neurons and glia at 10-12 days in vitro (DIV 10-12) were exposed to 20 μM cyclosporine A (CsA) or 10 nM caliculin A (cal A). Neurons underwent widespread apoptosis 24 hr later as previously reported (McDonald et al., 1996; Ko et al., 2000). […] This implies that Li^+ and the neuroprotective drugs (vitamin E, trolox, BAS, CBAS, FBAS, TBAS, PBAS, MBAS, NPAA, NPPAA, 2-Hydroxy-TTBA, and 2-Hydroxy-TPEA) selectively prevent neuronal cell apoptosis and free radical-mediated necrosis, respectively.

[6] = single-dose toxicity test; details: mouse, in vivo
Experimental: Single-dose toxicity test of compounds showing good results in the above three efficacy tests were evaluated.

beta-amyloid (Aβ42) = assay: suppression of beta-amyloid (Aβ42) production in CHO cells (ELISA); assay type: cell-based, Chinese hamster; details: Cricetulus griseus; CHO cells stably transfected with human wild APP695 and PS1ΔExon9; culture medium, ELISA; read-out: Aβ42 lowering effect (IC50)
Experimental: The suppressing effects of many drug candidates on production of beta-amyloid were evaluated in CHO cell line having the increased level of beta-amyloid. Results were shown as IC50 (uM) (Item C of Table 3 below).
In the Table 3, A, B and C mean neuron protecting effect against Fe^+2, suppressing effect on production of NO and suppressing effect on production of beta-amyloid, respectively. The term “ND” means “Not determined.”
Cells were treated with increasing concentrations of various chemicals in Chinese hamster ovary (CHO) cells stably transfected with human wild APP695 and the PS1ΔExon9, and analyzed Aβ42 levels in culture medium by colorimetric sandwich ELISA kit (BIOSOURCE, Camarillo, Calif.). In CHO cells, IC50 of Chemical—01-08 on Aβ42 lowering effect was 20-100 uM (Table 4).

[7] = 2-hydroxy TTBA 30 mg/kg/d, 0.2% lithium carbonate, or both, in diet from 8 weeks of age, n=13

[Li+] [Li^+, lithium ion, reference compound]
Fas-FADD interaction, effect in words (Fas-FADD interaction): blocked
Fe^2+-induced free radical neurotoxicity, effect in words [1]: did not attenuate; also recorded: does not attenuate
Fe^2+-induced neuronal death (oxidative stress), effect in words ([1]; FIG. 5A: 30 μM Fe^2+, 24 h, 1 μM 2-hydroxy TTBA (submicromolar), 5 mM Li^+): not attenuated and not
BSO-induced free radical neurotoxicity, effect in words ([2]; 10 mM BSO, 24 hr, 2-Hydroxy-TTBA or 2-Hydroxy-TPEA at doses as low as 0.3 μM, Li^+ 10 mM (legend 5 mM)): did not attenuate; also recorded: does not attenuate
BSO-induced neuronal death (oxidative stress), effect in words ([2]; FIG. 5A: 10 mM BSO, 24 h, 1 μM 2-hydroxy TTBA (submicromolar), 5 mM Li^+): not attenuated and not
levels of Fas, FADD, cleaved caspase-8 and caspase-3 (Fas pathway) in lumbar spinal cord [3]: completely blocked
serum deprivation-induced neuronal cell apoptosis, effect in words [4]: prevented; also recorded: prevents apoptosis
Mortality (survival) (G93A transgenic mice; [7]): 137.2 days and 137.2^a ± 2.20 days
Onset from PaGE (G93A transgenic mice; [7]): 113.3 days and 113.3^a ± 2.28 days
Onset from Rotarod (G93A transgenic mice; [7]): 114.7 days and 114.7^a ± 2.23 days
weight loss, % of the wild type (G93A transgenic mice; G93A mice at 18 weeks of age, oral administration in diet): 53%
extension reflex, motor strength, and coordination (G93A transgenic mice; G93A mice, drug in diet): improved
degeneration (loss) of ventral motor neurons in lumbar spinal cord (G93A transgenic mice; at 16 weeks of age): 58%
motor performance versus vehicle-treated control (G93A transgenic mice; from 11 weeks to 18 weeks, in the diet): better motor performance
neuronal cell apoptosis, effect in words ([5]; 20 μM cyclosporine A or 10 nM calyculin A, Li^+ at doses of 3-30 mM): dose-dependently attenuated

O=C(O)c1cc(NCCCc2ccc([N+](=O)[O-])cc2)ccc1O [NPPAA, 5-[3-(4-nitrophenyl)-n-propyl]aminosalicylic acid]
IC50 ([1]; Mus musculus, Neuron): 0.2 µM

O=C(O)c1cc(NCc2c(F)c(F)c(F)c(F)c2F)ccc1O [PBAS, 5-(pentafluoro-benzyl)aminosalicylic acid]
IC50 [1]: 0.1 µM

O=C(O)c1cc(NCc2ccc(C(F)(F)F)cc2)ccc1O [TBAS]
IC50 [1]: 0.31 µM

Cc1c(C)c2c(c(C)c1O)CCC(C)(C(=O)O)O2 (centres unmarked) [Trolox, reference compound]
IC50 ([1]; Mus musculus, Neuron): 3.34 µM

O=C(O)c1cc(NCCc2cccc(C(F)(F)F)c2)ccc1O [chemical 04, 2-Hydroxy-5-[2-(3-trifluoromethyl-phenyl)-ethylamino]-benzoic acid]
single-dose toxicity, result in words [6]: high toxicity or dose-independent toxicity

O=C(O)c1cc(NCCc2cc(C(F)(F)F)cc(C(F)(F)F)c2)ccc1O [chemical 27, 5-[2-(3,5-Bis-trifluoromethyl-phenyl)-ethylamino]-2-hydroxy-benzoic acid]
single-dose toxicity, result in words [6]: did not show dose-dependent result
IC50 (beta-amyloid (Aβ42)): 109 µM

O=C(O)c1cc(NCCCc2ccc(C(F)(F)F)cc2)ccc1O [chemical 42, 2-Hydroxy-5-[3-(4-trifluoromethyl-phenyl)-propylamino]-benzoic acid]
single-dose toxicity, result in words [6]: high toxicity or dose-independent toxicity
IC50 (beta-amyloid (Aβ42)): 68.3 µM

COC(=O)C[C@H](NC(=O)[C@H](C)NC(=O)[C@@H](NC(=O)OCc1ccccc1)C(C)C)C(=O)CF [zVADfmk] (Cbz-Val-Ala-Asp(OMe)-CH2F)
serum deprivation-induced neuronal cell apoptosis, effect in words [4]: prevented

Vitamin E [reference compound]
IC50 [1]: 22 µM
Fe^2+-induced free radical neurotoxicity, effect in words [1]: prevented
cyclosporine A-induced neuronal cell apoptosis, effect in words [5]: do not attenuate
cyclosporine A-induced neuronal cell apoptosis, effect in words ([5]; listed as vitamin E): not attenuated
